The subject of experiment [1] is D1-like dopamine receptors in l-LNv. Kind of experiment: EPAC-FRET cAMP imaging of l-LNv response to dopamine. It counts as cell-based, Drosophila.
Experiment [2] has as its system Drosophila D1-like receptors expressed in hEK-293 cells. The following applies: hEK-293 cells expressing Drosophila D1-like receptor.
In experiment [3] the test system is D1-like dopamine receptors in l-LNv. As to conditions: via one or more D1-like dopamine receptors, ref Shang et al. 2011, Duvall and Taghert, 2012; cited from earlier work.
Experiment [4] concerns dopamine receptor(s) (DA-R) in s-LNv. As to conditions: 2012, cited from earlier work.
Experiment [5] has the same test system. As to conditions: for Max Ampl DA ZT4 / Max Ampl DA ZT22 / EC50: Pdf > Epac50A.

Where two headings read alike, the source gives them in different places.

Consider `NCCc1ccc(O)c(O)c1` [DA, dopamine], for which the “FRET responses to DA over the 24-hr period” value in experiment [1] (3 × 10^−05 M DA, N=33 brains, 178 ROIs, P=0.574) is listed as “did not significantly vary over the 24-hr time period tested”. Further, the “Max Ampl DA ZT4” value in experiment [1] (Pdf > Epac50A, LD 12:12, ZT4) is 15.3 ± 1.3; in experiment [5] (s-LNv, LD 12:12, ZT4) it was 15.3 ± 1.2; in experiment [5] (rala[CA], s-LNv, LD 12:12, ZT4), 14.0 ± 1.4; in experiment [5] (rala[DN], s-LNv, LD 12:12, ZT4), 13.6 ± 1.5. Moreover, the “Max Ampl DA ZT22” value in experiment [1] (Pdf > Epac50A, LD 12:12, ZT22) is reported as 16.0 ± 1.3; in experiment [5] (s-LNv, LD 12:12, ZT22) it was 14.7 ± 2.8; in experiment [5] (rala[CA], s-LNv, LD 12:12, ZT22), 13.6 ± 2.0; in experiment [5] (rala[DN], s-LNv, LD 12:12, ZT22), 14.4 ± 1.9. Besides, the β-ARR2-GFP translocation entry in experiment [2] was “potently recruited β-ARR2-GFP translocation”. In addition, the “cAMP increase in vivo” value is given as “generates cAMP increases in vivo” in experiment [3]; “generates cAMP increases in vivo” in experiment [4] (small LNv, ref Shang et al. 2011, Duvall and Taghert). In experiment [4] (s-LNv, ref Duvall and Taghert), the “DA responsiveness on over-expression of AC3” value is “no effect on DA responsiveness”. In addition, the “rhythm of responsiveness to DA” value in experiment [5] (3 × 10^−05 M DA, s-LNv, N=36 brains, 124 ROIs) is listed as “peak phase in synchrony with the peak phase of PDF responsiveness, just after lights-on”. Moreover, the EC50 in experiment [5] (read-out: DA EC50 ZT4, rala[CA], s-LNv, LD 12:12, ZT4) amounted to 5.7 µM; in experiment [5] (read-out: DA EC50 ZT4, rala[DN], s-LNv, LD 12:12, ZT4) it was 29 µM; in experiment [5] (read-out: DA EC50 ZT22, rala[CA], s-LNv, LD 12:12, ZT22), 6.4 µM. The “DA responsiveness after RNAi targeting of AC13E and of ACX-A” value in experiment [5] (s-LNv, Suppl. Figure 2-top) is reported as “partially reduced DA responsiveness”. Also, the “attenuation of FRET response after peak” value in experiment [5] (sustained exposure to DA) was “rapidly attenuated”. In experiment [5] (sustained exposure to DA, relation: within), the “time to peak of FRET response” value lay within 1 to 2 min.

(Values after article PMC4873338 (Neuron, 2016).)
